In patent US20250154165A1, “MULTIANTENNARY GLYCOLIPID MIMETICS” (CONSEJO SUPERIOR DE INVESTIGACIONES CIENTÍFICAS (CSIC), priority 2021, published 2025):

What was measured:
[1] = test system: Splenocytes treated with LPS; experiment: Suppression of LPS-induced inflammation (splenocytes in vitro); assay type: cell-based, mouse; conditions: splenocytes treated concurrently with compound and LPS (FIG. 1)
Procedure: FIG. 1. […] Splenocytes were treated concurrently with the compounds of the invention and LPS to assess the suppressive function of compounds on LPS-induced inflammation, with several compounds showing prominent suppressive function.
(§1) The whole spleen was surgically removed from a mouse and mechanically dissociated into a single cell suspension of splenocytes, which were then cultured in the complete RPMI 1640 medium (cRPMI). Human peripheral blood mononuclear cells (PBMCs) from healthy volunteers were collected from whole blood through gradient-centrifugation with Histopaque-1077 (Sigma-Aldrich).
Splenocytes were treated concurrently with the compounds of the invention and LPS to assess the suppressive function of compounds on LPS-induced inflammation.

[2] = test system: Splenocytes treated with αGalCer; experiment: Suppression of αGalCer-induced inflammation (splenocytes in vitro); assay type: cell-based, mouse; conditions: splenocytes treated concurrently with compound and αGalCer (FIG. 5)
Procedure: FIG. 5. […] Splenocytes were treated concurrently with the compounds of the invention and αGalCer to assess the suppressive function of compounds on αGalCer-induced inflammation, with several compounds showing prominent suppressive function.
as §1
Splenocytes were treated concurrently with the compounds of the invention and αGalCer to assess their ability to suppress αGalCer-induced inflammation.

Splenocytes = experiment: Immune-stimulating function of compounds alone (splenocytes in vitro); assay type: cell-based, mouse; conditions: for Th1/Th2 bias: concluded from IFNγ and IL-4 secretion of splenocytes (FIG. 6); for IFNγ secretion / IL-4 secretion: splenocytes treated with compound alone (FIG. 6)
Procedure: FIG. 6. […] Splenocytes were treated with the compounds of the invention alone to assess the immune-stimulating function of the compounds. Compounds 12, 18, 22, 27, and 29 induced significant IFNγ secretion, and compound 8 induced significant IL-4 secretion.
as §1
Splenocytes were treated with the compounds of the invention alone to assess the immune-stimulating function of the compounds by measuring their ability to promote the secretions of IFN-γ and IL-4.

[3] = test system: bone marrow-derived macrophages (BMDM) treated with LPS; experiment: Suppression of LPS-induced inflammation in bone marrow-derived macrophages (BMDM in vitro); assay type: cell-based; conditions: LPS-induced, BMDM (FIG. 2)
From the text: Since macrophage is the major responder to LPS-induced inflammation, we assessed the capability of selected compounds to suppress LPS-induced inflammation in bone marrow-derived macrophages (BMDM).

B6 mice = experiment: Adjuvancy function in vivo (serum IFNγ and IL-4 after injection)
Procedure: FIG. 11. […] The adjuvancy capability of the selected compounds 8, 12, 18, 27, and 29 in vivo was assessed by measuring the serum level of IFNγ and IL-4 induced after injecting them into B6 mice.
Besides assessing the ability of the new compounds to suppress inflammation, we also looked into their function to act as adjuvants, i.e. their ability to promote desirable immunological trends in the development of vaccines. We measured the in vivo adjuvancy capability of selected compounds 8, 12, 18, 27, and 29 in inducing IFNγ and IL-4 in B6 mice (FIG. 11).

[4] = test system: OVA-induced AHR mouse model; experiment: Suppression of OVA-induced airway inflammation in vivo (IL-13 and IL-4 in BALF and lungs); conditions: OVA-induced AHR experiment; for IL-4 level in BALF / IL-13 level in BALF: bronchoalveolar lavage fluid (FIG. 8); for IL-4 protein level in lungs / IL-13 protein level in lungs: lung protein (FIG. 9)
Procedure: FIG. 8. […] The bronchoalveolar lavage fluid (BALF) from mice in the OAV-induced AHR experiment was examined forth IL-13 and IL-4 levels.
FIG. 9. […] The lungs from mice in the OAV-induced AHR experiment was examined for their IL-13 and IL-4 protein level.
FIG. 10. […] The lungs from mice in the OAV-induced AHR experiment was examined for their IL-13 and IL-4 mRNA levels.
(§2) For ovalbumin (OVA) challenge, mice were sensitized intraperitoneally (i.p.) with 50 μg of OVA with 2% alhydrogel adjuvant (InvivoGen). Mice were challenged three times with 50 μg of OVA on day 7 post-sensitization, either daily or every other day. Mice were sacrificed the day after the last OVA challenge. The scheme of the OT-1 adoptive transfer mouse model for examining the proliferation of CD8^+ T cells in adjuvanting OVA challenge is described in FIG. 13.
Upon exposure of the trachea, the lungs were lavaged twice with 1 mL of PBS supplemented with 2% fetal calf serum (FCS). BALF was pooled and bronchoalveolar (BAL) cells were pelleted by centrifugation and fixed onto cytospin slides. The slides were stained with Diff-Quik solution (Polysciences Inc) and BAL differential cell count was performed.
(§3) Using the Th2 OVA-induced AHR mouse model, we assessed the capability of selected compounds 8, 12, 18, and 27 in suppressing Th2 inflammation.

[5] = test system: glycosidases of human fibroblast lysates; experiment: Stability of the glycosidic linkage to glycosidases upon incubation with human fibroblast lysates; assay type: in vitro ADME; conditions: 4 h, 37° C., compound solution 200 μM, 0.1 M citrate buffer pH 4.5
Procedure: The stability of the glyosidic linkage in compounds 2, 4, 6, 8, 10, 12, 14, 16, 18, 20, 22, 23, 25, 27 and 29, selected as representative examples, upon incubation with human fibroblast lysates for 4 h was checked. For such purpose, cells were scraped into ice-cold H2O (10^6 cells mL^−1) and lysed by sonication. Insoluble materials were removed by centrifugation at 15,000 rpm for 5 min and protein concentrations were determined with Protein Assay Rapid Kit (WAKO, Tokyo, Japan). 10 μL of the lysates in 0.1% Triton X-100 in distilled water were incubated at 37° C. with 20 μL of the compound solution (200 μM) in 0.1 M citrate buffer, pH 4.5. In control experiments, the activity of several lysosomas glycosidases was confirmed using fluorescent substrates. The substrates were 4-methylumbelliferone (4-MU)-conjugated β-D-glucopyranoside (for GCase), α-D-glucopyranoside (for α-glucosidase), α-D-galactopyranoside (for α-Galase) and β-D-galactopyranoside (for β-galactosidase). The liberated 4-methylumbelliferone was measured in the black-well plate with a Perkin Elmer Luminescence Spectrometer (excitation wavelength: 340 nm; emission: 460 nm).

[6] = test system: OVA-induced AHR mouse model; experiment: Suppression of OVA-induced airway hyperreactivity (AHR) in vivo; conditions: OVA-induced AHR mouse model (FIG. 7)
Procedure: FIG. 7. […] The capability of selected compounds 8, 12, 18, and 27 in suppressing Th2 inflammation in vivo was assessed using the OAV-induced AHR mouse model.
as §2
Mice were anesthetized with 100 mg per kg body weight pentobarbital (Sigma-Aldrich), tracheotomised and mechanically ventilated via the FinePointe RC system (Buxco Research Systems, Wilmington, NC). Lung function was assessed by measuring lung resistance and dynamic compliance in response to increasing doses of aerosolized methacholine (1.25-40 mg/mL, Sigma-Aldrich).
as §3

[7] = 2 hours after injection (FIG. 11)
[8] = 18 hours after injection (FIG. 11)

Structure (SMILES) | suppressive function on LPS-induced inflammation [1] | Th1/Th2 bias (Splenocytes) | IFNγ secretion (Splenocytes) | IL-4 secretion (Splenocytes) | serum level of IFNγ induced (B6 mice; [7]) | serum level of IL-4 induced (B6 mice; [7]) | serum level of IFNγ induced (B6 mice; [8]) | serum level of IL-4 induced (B6 mice; [8]) | IL-4 protein level in lungs [4] | IL-13 protein level in lungs [4] | other results
CCCCCCCCCCCCNC(=O)[C@H](CS[C@@H]1C(O)[C@@H](OCc2ccccc2)[C@H](O)C2COC(=O)N21)NC(=O)CCCCCCCCCCC (some centres unmarked) [Compound 20] | prominent inflammation-suppressing function |  |  |  |  |  |  |  |  |  | 
CCCCCCCCCCCCCCCCCCCCCCCCCC(=O)N[C@@H](CO[C@@H]1C(O)[C@@H](O)[C@H](O)C2COC(=O)N21)[C@H](O)[C@H](O)CCCCCCCCCCCCCC (some centres unmarked) [Compound 2] |  |  |  |  |  |  |  |  |  |  | suppressive function on αGalCer-induced inflammation [2]: prominent inflammation-suppressing function
CCCCCCCCCCCCCC(=O)N[C@@H](CS[C@@H]1C(O)[C@@H](O)[C@H](O)C2COC(=O)N21)C(=O)NCCCCCCCCCCCC (some centres unmarked) [Compound 22] |  | Th1-biased | effective in promoting the productions of IFNγ | not IL-4 |  |  |  |  |  |  | 
CCCCCCCCCCCCNC(=O)[C@H](CO[C@@H]1C(O)[C@@H](O)[C@H](O)C2COC(=O)N21)NC(=S)NCCCCCCCC (some centres unmarked) [Compound 14] | prominent inflammation-suppressing function |  |  |  |  |  |  |  |  |  | 
CCCCCCCCCCCCNC(=O)[C@H](CO[C@@H]1C(O)[C@@H](O)[C@@H](O)C2COC(=O)N21)NC(=O)CCCCCCCCCCC (some centres unmarked) [Compound 27] |  | Th1-biased | effective in promoting the productions of IFNγ | not IL-4 | significant capability in inducing | significant capability in inducing | significant detectable level | significant detectable level | only showed significant suppression on IL-13 | significant suppression | suppression of IL-6 [3]: significant suppression; suppression of TNFα [3]: significant suppression; IL-4 level in BALF [4]: only showed significant suppression on IL-13; IL-13 level in BALF [4]: significant suppression
CCCCCCCCCCCCCCCCCCCCCCCCCC(=O)N[C@@H](CO[C@@H]1C(O)[C@@H](O)[C@@H](O)C2COC(=O)N21)[C@H](O)[C@H](O)CCCCCCCCCCCCCC (some centres unmarked) [Compound 6] |  |  |  |  |  |  |  |  |  |  | suppressive function on αGalCer-induced inflammation [2]: prominent inflammation-suppressing function
CCCCCCCCCCCCCCC(O)C(O)C(COC1C(O)C(O)C(O)C2COC(=O)N21)n1cc(CCCCCCCCCCCC)nn1 (centres unmarked) [Compound 10] | prominent inflammation-suppressing function |  |  |  |  |  |  |  |  |  | hydrolysis of the glycolipid mimetic (free polysubstituted 2-oxa-3-oxoindolizidine detected by gas chromatography) [5]: No traces of the free polysubstituted 2-oxa-3-oxoindolizidine
CCCCCCCCCCCCNC(=O)[C@H](CS[C@@H]1C(O)[C@@H](O)[C@H](O)C2COC(=O)N21)NC(=O)CCCCCCCCCCC (some centres unmarked) [Compound 18] | prominent inflammation-suppressing function | Th1-biased | effective in promoting the productions of IFNγ | not IL-4 | significant serum IFNγ level | only showed significant serum IFNγ level | significant serum IFNγ level | only showed significant serum IFNγ level | only showed significant suppression on IL-13 | significant suppression | suppression of airway hyperreactivity (AHR) [6]: can suppress AHR onset; IL-4 level in BALF [4]: significant suppression; IL-13 level in BALF [4]: only showed significant suppression on IL-4
CCCCCCCCCCCCNC(=O)[C@H](CS[C@@H]1C(O)[C@@H](O)[C@@H](O)C2COC(=O)N21)NC(=O)CCCCCCCCCCC (some centres unmarked) [Compound 29] |  | Th1-biased | effective in promoting the productions of IFNγ | not IL-4 | significant capability in inducing | significant capability in inducing | significant detectable level | significant detectable level |  |  | 
CCCCCCCCCCCCCC[C@@H](O)[C@@H](O)[C@H](CO[C@@H]1C(O)[C@@H](O)[C@@H](O)C2COC(=O)N21)n1cc(CCCCCCCC)nn1 (some centres unmarked) [Compound 8] | prominent inflammation-suppressing function | Th2-biased | not IFNγ | proficient at inducing IL-4 secretion | significant capability in inducing | significant capability in inducing | significant detectable level | significant detectable level | only showed significant suppression on IL-13 | significant suppression | suppression of airway hyperreactivity (AHR) [6]: can suppress AHR onset
